ChEMBL document CHEMBL3627697, “Aminopyrazolo[1,5-a]pyrimidines as potential inhibitors of Mycobacterium tuberculosis: Structure activity relationships and ADME characterization” (Bioorg Med Chem, 2015)
pIC50: −log10 of the molar value. Values after ≈ are worked out from the molar mass of the structure shown.

What was measured:
[1] = Kinetic solubility of the compound at pH 7.4 after 2 hrs by shake flask method-based HPLC-DAD analysis; type: physicochemical; settings: buffer, read-out: Kinetic_solubility
[2] = tested on: Mycobacterium tuberculosis; assay: Antimycobacterial activity against Mycobacterium tuberculosis H37Rv in 7H9/ADC/Tween medium measured at day 14 by Alamar Blue assay; type: functional; settings: 336 h
[3] = tested on: Mycobacterium tuberculosis; assay: Antimycobacterial activity against Mycobacterium tuberculosis H37Rv in GAST-Fe medium measured at day 14 by Alamar Blue assay; type: functional; settings: 336 h
CHO = assay: Cytotoxicity against CHO cells assessed as cell viability by MTT assay; type: cell-based; settings: Cricetulus griseus
[4] = tested on: Mycobacterium tuberculosis; assay: Antimycobacterial activity against Mycobacterium tuberculosis H37Rv in GAST medium with low Fe level measured at day 14 by Alamar Blue assay; type: functional; settings: 336 h
[5] = Metabolic stability in human liver microsomes assessed as compound remaining at 0.1 uM measured at 30 mins by LC-MS/MS analysis; type: ADME; settings: read-out: Stability
[6] = Metabolic stability in rat liver microsomes assessed as compound remaining at 0.1 uM measured at 30 mins by LC-MS/MS analysis; type: ADME; settings: read-out: Stability
[7] = Metabolic stability in mouse liver microsomes assessed as compound remaining at 0.1 uM measured at 30 mins by LC-MS/MS analysis; type: ADME; settings: read-out: Stability

SMILES	solubility kinetic at 2 h [1] [µM]	MIC99 [2] [µM]	also measured
Cc1cc(Nc2ccccn2)n2nc(C)c(-c3ccccc3)c2n1	< 5	> 160	–
Cc1cc(NCc2nccn2C)n2nc(C)c(-c3ccccc3)c2n1	26.9 (≈ 8.94 µg/mL)	5 (≈ 1.66 µg/mL)	MIC99 [3]: 37 µM (≈ 12.3 µg/mL); pIC50 (CHO): > 5.05; MIC99 [4]: 20 µM (≈ 6.65 µg/mL)
Cc1cc(NCc2ccccn2)n2ncc(-c3ccn(C)n3)c2n1	188 (≈ 60 µg/mL)	> 160	–
Cc1cc(NCc2ccccn2)n2ncc(-c3ccccc3C)c2n1	< 5	1.25 (≈ 0.412 µg/mL)	–
Cc1cc(NCc2ccccn2)n2ncc(-c3ccc(C(=O)NCCN(C)C)cc3)c2n1	189 (≈ 81.3 µg/mL)	> 160	–
Cc1cc(NCc2cccnc2)n2nc(C)c(-c3ccccc3)c2n1	110 (≈ 36.3 µg/mL)	> 160	–
Cc1cc(NCc2ncccn2)n2nc(C)c(-c3ccccc3)c2n1	37.9 (≈ 12.5 µg/mL)	80 (≈ 26.4 µg/mL)	–
Cc1cc(NCc2ccccn2)n2ncc(-c3c(C)cccc3C)c2n1	< 5	> 160	–
Cc1cc(NCc2ccccn2)n2nc(C)c(-c3cccnc3F)c2n1	< 5	10 (≈ 3.48 µg/mL)	remaining at 0.5 h, 0.1 µM [5]: 100%; remaining at 0.5 h, 0.1 µM [6]: 96.5%; remaining at 0.5 h, 0.1 µM [7]: 100%
Cc1cc(NCc2nccs2)n2nc(C)c(-c3ccccc3)c2n1	108 (≈ 36.1 µg/mL)	> 160	–
Cc1cc(NCc2ccccn2)n2ncc(-c3ccc(C(=O)Nc4ccccc4)cc3)c2n1	5 (≈ 2.17 µg/mL)	> 160	–
Cc1cc(NCc2ccccn2)n2ncc(C3=CCC(F)(F)CC3)c2n1	5 (≈ 1.78 µg/mL)	5 (≈ 1.78 µg/mL)	–
Cc1cc(OCc2ccccn2)n2nc(C)c(-c3ccccc3)c2n1	25.6 (≈ 8.46 µg/mL)	> 160	–
Cc1cc(NCc2ccccn2)n2ncc(-c3cccc(N)c3)c2n1	160 (≈ 52.8 µg/mL)	> 160	remaining at 0.5 h, 0.1 µM [5]: 89.5%; remaining at 0.5 h, 0.1 µM [6]: 56.8%; remaining at 0.5 h, 0.1 µM [7]: 55.1%
Cc1cc(NCc2ccc(F)cn2)n2nc(C)c(-c3ccccc3)c2n1	< 5	5 (≈ 1.74 µg/mL)	MIC99 [3]: 20 µM (≈ 6.95 µg/mL); remaining at 0.5 h, 0.1 µM [5]: 31.4%; pIC50 (CHO): 4.66; remaining at 0.5 h, 0.1 µM [6]: 45.5%; MIC99 [4]: > 160 µM; remaining at 0.5 h, 0.1 µM [7]: 5.3%
Cc1cc(NCC2CCCCN2)n2nc(C)c(-c3ccccc3)c2n1 (centres undefined)	189 (≈ 63.3 µg/mL)	> 160	remaining at 0.5 h, 0.1 µM [5]: 51.8%; remaining at 0.5 h, 0.1 µM [6]: 5.1%; remaining at 0.5 h, 0.1 µM [7]: 14%
COc1ccc(-c2cnn3c(NCc4ccccn4)cc(C)nc23)cc1	< 5	20 (≈ 6.91 µg/mL)	–
COc1ccc(-c2c(C)nn3c(NCc4ccccn4)cc(C)nc23)cc1	< 5	20 (≈ 7.19 µg/mL)	–
Cc1cc(NCc2ccccn2)n2nc(C)c(Nc3ccccc3)c2n1	7.8 (≈ 2.69 µg/mL)	40 (≈ 13.8 µg/mL)	–
Cc1ccc(-c2cnn3c(NCc4ccccn4)cc(C)nc23)cc1	< 5	5 (≈ 1.65 µg/mL)	–
Cc1cc(NCc2ccccn2)n2ncc(-c3ccc(N(C)C)cc3)c2n1	< 5	20 (≈ 7.17 µg/mL)	–

SMILES	solubility kinetic at 2 h [1] [µM]	MIC99 [2] [µM]	also measured
Cc1cc(NCc2ccccn2)n2ncc(-c3cccc(Cl)c3)c2n1	< 5	2.5 (≈ 0.875 µg/mL)	MIC99 [3]: > 160 µM; pIC50 (CHO): 5.42; MIC99 [4]: > 160 µM
Cc1cc(NCc2nccn2C)n2nc(C)cc2n1	182 (≈ 46.7 µg/mL)	> 160	remaining at 0.5 h, 0.1 µM [5]: 100%; remaining at 0.5 h, 0.1 µM [6]: 80.6%; remaining at 0.5 h, 0.1 µM [7]: 85.1%
CCN1CCCC1CNc1cc(C)nc2c(-c3ccccc3)c(C)nn12 (centres undefined)	172 (≈ 60.1 µg/mL)	> 160	remaining at 0.5 h, 0.1 µM [5]: 54%
Cc1cc(NCc2ccccn2)n2ncc(-c3ccsc3)c2n1	9 (≈ 2.89 µg/mL)	20 (≈ 6.43 µg/mL)	–
Cc1cc(NCc2ccccn2)n2ncc(Br)c2n1	89.3 (≈ 28.4 µg/mL)	> 160	–
Cc1cc(NCCc2ccccn2)n2nc(C)c(-c3ccccc3)c2n1	< 5	> 160	–
Cc1cc(NCc2cnccn2)n2nc(C)c(-c3ccccc3)c2n1	7.1 (≈ 2.35 µg/mL)	80 (≈ 26.4 µg/mL)	–
Cc1cc(NCc2ccccn2)n2ncc(-c3ccc(F)cc3F)c2n1	< 5	> 160	–
Cc1cc(NCc2ccccn2)n2ncc(-c3ccc(F)c(Cl)c3)c2n1	< 5	1.25 (≈ 0.46 µg/mL)	MIC99 [3]: > 160 µM; pIC50 (CHO): 4.70; MIC99 [4]: > 160 µM
NC[C@H]1O[C@H](O[C@H]2[C@H](O)[C@@H](O[C@H]3O[C@H](CO)[C@@H](O)[C@H](N)[C@H]3O)[C@H](N)C[C@@H]2N)[C@H](O)[C@@H](O)[C@@H]1O [KANAMYCIN]	–	6.45 (≈ 3.13 µg/mL)	–
Cc1cc(NCc2cccs2)n2nc(C)c(-c3ccccc3)c2n1	< 5	> 160	–
Cc1cc(NCc2ccccn2)n2ncc(-c3cncnc3)c2n1	111 (≈ 35.2 µg/mL)	160 (≈ 50.8 µg/mL)	–
Cc1cc(NCc2ccccn2)n2nc(C)c(-c3ccc(F)cc3)c2n1	< 5	5 (≈ 1.74 µg/mL)	–
Cc1cccc(CNc2cc(C)nc3c(-c4ccccc4)c(C)nn23)n1	< 5	> 160	–
Cc1cc(NCc2ccccn2)n2nc(C)cc2n1	> 200	5 (≈ 1.27 µg/mL)	–
Cc1cc(NCc2cccc[n+]2[O-])n2ncc(-c3ccccc3)c2n1	159 (≈ 52.7 µg/mL)	> 160	remaining at 0.5 h, 0.1 µM [5]: 99.7%; remaining at 0.5 h, 0.1 µM [6]: 61.2%; remaining at 0.5 h, 0.1 µM [7]: 12.3%
Cc1cc(NCc2ccco2)n2nc(C)c(-c3ccccc3)c2n1	< 5	> 160	–
Cc1cc(NCc2ccccn2)n2ncc(-c3ccco3)c2n1	48.8 (≈ 14.9 µg/mL)	40 (≈ 12.2 µg/mL)	–
Cc1cc(NCc2ccc3ccccc3n2)n2nc(C)c(-c3ccccc3)c2n1	< 5	> 160	–
Cc1cc(NCc2ccccn2)n2ncc(-c3ccccc3F)c2n1	5 (≈ 1.67 µg/mL)	2.5 (≈ 0.833 µg/mL)	MIC99 [3]: > 160 µM; pIC50 (CHO): 5.26; MIC99 [4]: > 160 µM
Cc1cc(NCc2ccccn2)n2ncc(-c3ccccc3)c2n1	< 5	10 (≈ 3.15 µg/mL)	–

SMILES	solubility kinetic at 2 h [1] [µM]	MIC99 [2] [µM]	also measured
CO[C@H]1/C=C/O[C@@]2(C)Oc3c(C)c(O)c4c(O)c(c(/C=N/N5CCN(C)CC5)c(O)c4c3C2=O)NC(=O)/C(C)=C\C=C\[C@H](C)[C@H](O)[C@@H](C)[C@@H](O)[C@@H](C)[C@H](OC(C)=O)[C@@H]1C [RIFAMPIN]	–	0.012 (≈ 0.00988 µg/mL)	–
Cc1cc(NCc2ccccn2)n2ncc(-c3ccc(Cl)cc3)c2n1	< 5	10 (≈ 3.5 µg/mL)	–
Cc1cc(NCc2ccccn2)n2ncc(-c3cc(F)c(F)c(F)c3)c2n1	< 5	2.5 (≈ 0.923 µg/mL)	–
Cc1cc(NCc2ccccn2)n2nc(C)c(-c3ccccc3)c2n1	< 5	5 (≈ 1.65 µg/mL)	MIC99 [3]: > 160 µM; remaining at 0.5 h, 0.1 µM [5]: 51.9%; pIC50 (CHO): 4.47; remaining at 0.5 h, 0.1 µM [6]: 39%; MIC99 [4]: > 160 µM; remaining at 0.5 h, 0.1 µM [7]: 6.2%
Cc1cc(NCc2ccccn2)n2ncc(-c3cccc(F)c3)c2n1	5 (≈ 1.67 µg/mL)	2.5 (≈ 0.833 µg/mL)	–
Cc1cc(NCc2ncnn2C)n2nc(C)c(-c3ccccc3)c2n1	185 (≈ 61.6 µg/mL)	> 160	remaining at 0.5 h, 0.1 µM [5]: 99.5%; remaining at 0.5 h, 0.1 µM [6]: 68.8%; remaining at 0.5 h, 0.1 µM [7]: 18.9%
Cc1cc(NCc2ccccn2)n2ncc(-c3ccc(F)cc3C)c2n1	42.3 (≈ 14.7 µg/mL)	> 160	–
Cc1cc(NCc2ccccn2)n2ncc(-c3cccc(N(C)C)c3)c2n1	94.6 (≈ 33.9 µg/mL)	80 (≈ 28.7 µg/mL)	remaining at 0.5 h, 0.1 µM [5]: 33.7%; remaining at 0.5 h, 0.1 µM [6]: 4.5%; remaining at 0.5 h, 0.1 µM [7]: 7.9%
Cc1cc(NCc2ccncc2)n2nc(C)c(-c3ccccc3)c2n1	134 (≈ 44 µg/mL)	> 160	–
Cc1cc(N(C)Cc2ccccn2)n2nc(C)c(-c3ccccc3)c2n1	17.5 (≈ 6.01 µg/mL)	> 160	–
Cc1cc(NCc2ccccn2)n2ncc(-c3ccc(C(F)(F)F)cc3)c2n1	< 5	> 160	–
Cc1cc(NCc2ccccn2)n2ncc(-c3ccc(O)cc3)c2n1	10.9 (≈ 3.61 µg/mL)	> 160	remaining at 0.5 h, 0.1 µM [5]: 99.3%; remaining at 0.5 h, 0.1 µM [6]: 60.1%; remaining at 0.5 h, 0.1 µM [7]: 41.4%
Cc1cc(NCCCc2ccccn2)n2nc(C)c(-c3ccccc3)c2n1	5.9 (≈ 2.11 µg/mL)	80 (≈ 28.6 µg/mL)	–
Cc1cc(NCc2ccccn2)n2ncc(-c3ccc(F)cc3)c2n1	< 5	5 (≈ 1.67 µg/mL)	–
Cc1cc(NCc2ncc[nH]2)n2nc(C)c(-c3ccccc3)c2n1	< 5	37 (≈ 11.8 µg/mL)	–
Cc1cc(NCc2c[nH]cn2)n2nc(C)c(-c3ccccc3)c2n1	14.6 (≈ 4.65 µg/mL)	> 160	–
Cc1cc(NCc2ccccn2)n2ncc(-c3ccc(C#N)cc3)c2n1	< 5	> 160	–
Cc1cc(NCc2ccccn2)n2ncc(-c3ccncc3)c2n1	161 (≈ 51 µg/mL)	> 160	–
Cc1cc(NCc2ccccn2)n2ncc(C3=CCOCC3)c2n1	171 (≈ 54.9 µg/mL)	80 (≈ 25.7 µg/mL)	–
